The subject of test [1] is dLight1.3b-expressing HEK293T sniffer cells on primary DArgic neurons. Put plainly: DA release imaging from cultured DArgic neurons with dLight1.3b sniffer cells. It counts as cell-based, mouse. Particulars: DETQ 200 nM added to 4-AP perfusion. The procedure: Primary DA (DA) neurons were grown on a layer of cortical astrocytes. The astrocytes were first prepared from P0-P2 C57BL6 mice, grown in T75 flask and then seeded on collagen/poly-L-lysine coated 15 mm glass coverslips at a concentration of 100,000 cells/ml. The cells were allowed to grow until close to confluence before the seeding of neurons. Primary DArgic neurons were prepared and cultured from P0-P2 mouse pups using a previously described protocol. Briefly, the ventral midbrain of P0-P2 pups was dissected from DAT^IREScre x Ai9 mice in which DA neurons expressed the red fluorescent protein tdTomato. These were produced by crossing DAT^IREScre mice (catalog #006660, Jackson Labs[31]) to Ai9/tdTomato mice (catalog #007905, Jackson Labs[32]). Both of these lines were on a C57BL/6 J background. Midbrain cells were seeded at a concentration of 240,000 cells/ml on top of the astrocyte monolayer and allowed to grow for 10 days (10 DIV). Two days before imaging, expression of dLight1.3b was induced in stable HEK cells with doxycycline. One day prior to imaging, HEK cells were lifted using trypsin, and 150,000 HEK cells were seeded on top of 10 DIV-cultured neurons in doxycycline-supplemented neuronal medium. Imaging was performed on a confocal microscope (Nikon A1 HD25) using a 40X dry objective and a 488 nm laser to excite dLight1.3b and a 546 nm laser to activate tdTomato and identify DA neurons. On the day of imaging, physiological saline containing drugs at the specified concentration ([…], Sigma; SCH23390, Sigma; DETQ, Enamine) were applied on the culture using a computer-controlled perfusion system (Automate system). A field containing one or more DA neurons was selected based on the tdTomato signal. […]
Event detection was performed using a thresholding algorithm adapted from[80]. In brief, the recorded field of view was divided into square ROIs of 55 um x 55 um size. […] A rolling standard deviation was calculated with the same window size. Events were defined as timepoints at which the fluorescence intensity reading exceeds the averaged intensity by 5 standard deviations.

The next test is described as follows: Open field behavior. It counts as in vivo, mouse. The procedure:
For combined locomotion/photometry experiments in the open field (OF) in tethered mice, a 50 × 50 cm arena was used. Fiber photometry was conducted using a Doric photometry rig combined with a filter/mirror minicube set (Doric Lenses), as above. […] Data were sampled at 122 Hz. […] Mice were habituated to the chamber for 3 consecutive days (30 minutes per day). On experimental days, locomotor activity was video recorded and synchronized with fiber photometry signal recording. The baseline DA signal was recorded for 20 minutes, then the mouse received i.p. injection of vehicle or DETQ (10 mg/kg) in interleaved sessions. Following injection, the DA signal was recorded for an additional 90 minutes. The OF chamber was cleaned with ethanol and water between mice. Recording sessions were repeated at 48 hours intervals. Mouse behavior as well as photometry signals were analyzed with a custom-written MATLAB script. Mouse locomotion was computed using the body center point of the animal. The center zone of the arena was defined automatically during behavior data analysis as the 25 × 25 cm square with the central point aligned to the center of the open field. The distance moved and time spent in the center zone were quantified in 10 minutes time bins and as the total during the 90 minutes after ip injections. To test the dose-dependent effects of DETQ on locomotion in untethered mice, mice were injected i.p. with vehicle, DETQ (3, 10 or 30 mg/kg) or cocaine (20 mg/kg) while their locomotor activity was recorded in an OF arena (60 x 60 cm) for 45 min. Videos were recorded with a Logitech C270 camera and analyzed with DeepLabCut (version 2.1.8.2)[84] on an existing open field network. Representative traces were generated with the Anymaze (v7.2) software (Stoelting Co.).

Molecules are shown by their SMILES.

As for `C[C@H]1c2cccc(C(C)(C)O)c2C[C@H](CO)N1C(=O)Cc1c(Cl)cccc1Cl` [DETQ, 2-(2,6-dichlorophenyl)-1-((1S,3R)-3-(hydroxymethyl)-5-(2-hydroxypropan-2-yl)-1-methyl-3,4-dihydroisoquinolin-2(1H)-yl)ethan-1-one], in test [1], the “number of detected phasic DA release events” value was “increased” and the “sensor baseline signal (tonic DA)” value is recorded as “long-lasting increase”. Moreover, the “total locomotion or time spent in the center” value in “Open field behavior” (tethered mice, DETQ 10 mg/kg) is reported as “did not observe any effect”. Moreover, the “locomotion in open field” value in “Open field behavior” (untethered mice, 45 min, DETQ 3, 10, 30 mg/kg i.p., cocaine 20 mg/kg) is listed as “did not have a significant effect”.

The values are drawn from paper PMC11219860, “A chemogenetic approach for dopamine imaging with tunable sensitivity” (Nature Communications, 2024).
